Data from patent publication US20090274773A1, “ANTIPROLIFERATIVE COMBINATION COMPRISING CYC-682 AND A CYTOTOXIC AGENT” (Cyclacel Limited, priority 2005, published 2009).
Like-named read-outs stand apart in the source and are kept apart here. Blank lines part the entries; values can stand above or below the molecule they belong to.

Legend:
Type in all cases: cell-based, human
COLO205 = test: MTT growth inhibition assay, single agent; settings: read-out: Antiproliferative effects IC50s (MTT assay)
Procedure: (§1) All cell lines were obtained from the ATCC (Rockville, Md.). Cells were grown as monolayers in RPMI medium supplemented with 10% fetal calf serum (Invitrogen, Cergy-Pontoise, France), 2 mM glutamine, 100 units/ml penicillin and 100 μg/ml streptomycin. All cells were split twice a week using trypsin/EDTA (0.25% and 0.02%, respectively; Invitrogen, Cergy-Pontoise, France) and seeded at a concentration of 2.5×10^4 cells/ml. All cell lines were tested regularly for Mycoplasma contamination by PCR using a Stratagene kit (La Jolla, Calif.).
(§2) The MTT assay was carried out as described previously (Hansen M B, Nielsen S E, Berg K. Re-examination and further development of a precise and rapid dye method for measuring cell growth/cell kill. J Immunol Methods. 1989 May 12; 119(2):203-10). In brief, cells were seeded in 96-well tissue culture plates at a density of 2×10^3 cells/well. Cell viability was determined after a 120-hour incubation, by the calorimetric conversion of yellow, water-soluble tetrazolium MTT (3-[4,5-dimethylthiazol-2-yl]-2,5-diphenyltetrazolium bromide; Sigma, Saint-Quentin Fallavier, France), into purple, water-insoluble formazan. This reaction is catalyzed by mitochondrial dehydrogenases and is used to estimate the relative number of viable cells (Mosmann, T, Rapid calorimetric assay for cellular growth and survival: application to proliferation and cytotoxicity assays. J Immunol Methods. 1983 Dec. 16; 65 (1-2):55-63). Cells were incubated with 0.4 mg/ml MTT for 4 hours at 37° C. After incubation, the supernatant was discarded, the cell pellet was resuspended in 0.1 ml of DMSO and the absorbance was measured at 560 nm using a microplate reader (Dynatech, Michigan). Wells with untreated cells or with drug-containing medium without cells were used as positive and negative controls, respectively. Growth inhibition curves were plotted as a percentage of untreated control cells.
(§3) The cells were seeded at 2×10^3 cells/well in 96-well plates and treated 24 hours later with increasing concentrations of CYC682. After incubation times of 1 hour, 24 hours or 48 hours, the cells were washed and post-incubated in drug-free medium for 72 hours. Growth inhibition was then determined by the MTT assay.

HCC2998 = test: MTT growth inhibition assay, single agent; settings: read-out: Antiproliferative effects IC50s (MTT assay)
Procedure: as §1, §2, §3

HCT116 = test: MTT growth inhibition assay, single agent; settings: read-out: Antiproliferative effects IC50s (MTT assay)
Procedure: as §1, §2, §3

HOP62 = test: MTT growth inhibition assay, single agent; settings: read-out: Antiproliferative effects IC50s (MTT assay)
Procedure: as §1, §2, §3

HOP92 = test: MTT growth inhibition assay, single agent; settings: read-out: Antiproliferative effects IC50s (MTT assay)
Procedure: as §1, §2, §3

HT29 = test: MTT growth inhibition assay, single agent; settings: read-out: Antiproliferative effects IC50s (MTT assay)
Procedure: as §1, §2, §3

IGROV1 = test: MTT growth inhibition assay, single agent; settings: read-out: Antiproliferative effects IC50s (MTT assay)
Procedure: as §1, §2, §3

MCF7 = test: MTT growth inhibition assay, single agent; settings: 24 hours exposure, read-out: Antiproliferative effects IC50s (MTT assay)
Procedure: as §1, §2, §3

MDA-MB-435 = test: MTT growth inhibition assay, single agent; settings: 24 hours exposure, read-out: Antiproliferative effects IC50s (MTT assay)
Procedure: as §1, §2, §3

OVCAR1 = test: MTT growth inhibition assay, single agent; settings: 24 hours exposure, read-out: Antiproliferative effects IC50s (MTT assay)
Procedure: as §1, §2, §3

NSCLC cell line H1299 = test: CNDAC combinations (alamar blue, Calcusyn Combination Index)
Procedure: Experiments in the NSCLC cell lines H1299 or RERF-LC-MA were performed in 96-well plates, with cells seeded at a density of 3,000/well, in DMEM containing 10% (v/v) FCS. Stock solutions of all drugs were made up in dimethylsulfoxide (DMSO), with the exception of gemcitabine, which was dissolved in 0.9% (w/v) sterile saline solution.
For experimental assessment of potential synergistic interactions, the concomitant treatment regime involved simultaneous treatment of cells with CNDAC and the other agent under investigation for 72 h, alongside suitable controls of cells treated with the individual compounds alone for 72 hr. In the sequential treatment regimes, one drug was added to the cells 2 h after plating, and left for 24 h. Media was then aspirated, replaced with fresh media containing the second drug and incubated for 72 h. The two individual treatment controls for the sequential treatment regime involved substituting one of the drug treatments with drug-free media. […] Drug interactions were analysed using the Calcusyn software package (BioSoft, Cambridge, U.K.) described below.

[1] = Homo sapiens, COLO 205, 24 hours exposure
[2] = Homo sapiens, HCC 2998, 24 hours exposure
[3] = Homo sapiens, HCT-116, 24 hours exposure
[4] = Homo sapiens, HOP-62, 24 hours exposure
[5] = Homo sapiens, HOP-92, 24 hours exposure
[6] = Homo sapiens, HT-29, 24 hours exposure
[7] = Homo sapiens, IGROV-1, 24 hours exposure
[8] = named agent in combination with CNDAC, H1299, CNDAC 24 h then other agent 72 h
[9] = named agent in combination with CNDAC, H1299, named agent 24 h then CNDAC 72 h
[10] = named agent in combination with CNDAC, H1299, simultaneous treatment 72 h

IC50 (COLO205; [1]): 240 ± 20 µM | IC50 (HCC2998; [2]): 10 ± 1 µM | IC50 (HCT116; [3]): 5.3 ± 1.3 µM | IC50 (HT29; [6]): 24 ± 1 µM | IC50 (MCF7; Homo sapiens): 10 ± 1 µM | IC50 (MDA-MB-435; Homo sapiens): 10 ± 2 µM | IC50 (OVCAR1; Homo sapiens): 24 ± 1 µM
Structure (SMILES): O=c1[nH]cc(F)c(=O)[nH]1 [5-FU, 5-fluorouracil]
IC50 (HOP62; [4]): 118 ± 32 µM | IC50 (HOP92; [5]): 11 ± 1 µM | IC50 (IGROV1; [7]): 29 ± 1 µM

IC50 (COLO205; [1]): 28 ± 8 µM | IC50 (HCC2998; [2]): 3.7 ± 0.5 µM | IC50 (HCT116; [3]): 1.2 ± 0.4 µM | IC50 (HT29; [6]): 130 ± 40 µM | IC50 (MCF7; Homo sapiens): > 300 µM | IC50 (MDA-MB-435; Homo sapiens): 38 ± 9 µM | IC50 (OVCAR1; Homo sapiens): > 300 µM
Structure (SMILES): Nc1ccn([C@@H]2O[C@H](CO)[C@H](O)[C@@H]2O)c(=O)n1 [Ara-C, 4-amino-1-[(2R,3S,4R,5R)-3,4-dihydroxy-5-(hydroxymethyl)oxolan-2-yl]pyrimidin-2-one]
IC50 (HOP62; [4]): 6.3 ± 2.8 µM | IC50 (HOP92; [5]): 1.3 ± 0.3 µM | IC50 (IGROV1; [7]): 89 ± 21 µM

Structure (SMILES): N.N.[Cl][Pt][Cl] [Cisplatin, cis-diamminedichlorplatinum (II)]
IC50 (COLO205; 24 hours exposure): 9.5 ± 2.5 µM | IC50 (HCC2998; 24 hours exposure): 25 ± 5 µM | IC50 (HCT116; 24 hours exposure): 9.2 ± 0.9 µM | IC50 (HOP62; 24 hours exposure): 9.3 ± 0.9 µM | IC50 (HOP92; 24 hours exposure): 4.4 ± 0.4 µM | IC50 (HT29; 24 hours exposure): 25 ± 3 µM | IC50 (IGROV1; 24 hours exposure): 26 ± 6 µM | IC50 (MCF7): 32 ± 2 µM | IC50 (MDA-MB-435): 13 ± 2.6 µM | IC50 (OVCAR1): 12.1 ± 3.93 µM | Interaction with CNDAC at ED50 (in words) (NSCLC cell line H1299; H1299, concomitant treatment): weak synergy | Interaction with CNDAC at ED50 (in words) (NSCLC cell line H1299; H1299, pre-treatment with named agent): synergy | Interaction with CNDAC (in words), summary of Table 3 (NSCLC cell line H1299; combination with CNDAC, regime not specified): synergistic drug interactions | Combination Index at ED75, CNDAC pretreatment (NSCLC cell line H1299; [8]): 1.5 | Combination Index at ED90, CNDAC pretreatment (NSCLC cell line H1299; [8]): 13.68 | Combination Index at ED50, CNDAC pretreatment (NSCLC cell line H1299; named agent in combination with CNDAC, H1299, CNDAC 24 h then other agent 72 h, C.I. <1 synergistic, 1 additive, >1 antagonistic): 1.16 | Combination Index at ED50, Other (named agent) pretreatment (NSCLC cell line H1299; [9]): 0.65 | Combination Index at ED75, Other (named agent) pretreatment (NSCLC cell line H1299; [9]): 0.93 | Combination Index at ED90, Other (named agent) pretreatment (NSCLC cell line H1299; [9]): 1.96 | Combination Index at ED50, Concomitant (NSCLC cell line H1299; [10]): 0.77 | Combination Index at ED75, Concomitant (NSCLC cell line H1299; [10]): 1.65 | Combination Index at ED90, Concomitant (NSCLC cell line H1299; [10]): 7.56
